Test results taken from patent US20050124794A1, “Cell surface tropomyosin as a target of angiogenesis inhibition” (priority 2002, published 2005).
Numbered stars: 1 amine (or outer) side, 2 acyl side, 3 side chain; on linkers, the order of the positions; unused ones are H or OH. Square brackets hold non-standard residues; d marks the D form. Ends that are not written are not given here. Peptide text beside a SMILES is read from it. * marks the point of attachment. X3 = O=C([C@H](Cc1c[nH]cn1)N(Cc1ccc(Cl)cc1)[*:1])[*:2]; Fmoc = O=C(OCC1c2ccccc2-c2ccccc21)*

Key:
[1] = tested on: bFGF-induced angiogenesis; test: Matrigel plug assay (bFGF-induced angiogenesis); type: in vivo, mouse; details: 400 ng/ml bFGF, five days, plugs scanned; for Inhibits Angiogenesis (Matrigel ® assay): peptide 300 μM, 50 μg/ml heparin
Procedure: This assay is performed essentially as described by Passaniti et al. (Lab Invest. 67:519-528 (1992). Ice-cold Matrigel® (e.g., 500 μL) (Collaborative Biomedical Products, Inc., Bedford, Mass.) is mixed with heparin (e.g., 50 μg/ml), FGF-2 (e.g., 400 ng/ml) and the compound to be tested. In some assays, bFGF may be substituted with tumor cells as the angiogenic stimulus. The Matrigel® mixture is injected subcutaneously into 4-8 week-old athymic nude mice at sites near the abdominal midline, preferably 3 injections per mouse. The injected Matrigel® forms a palpable solid gel. Injection sites are chosen such that each animal receives a positive control plug (such as FGF-2+heparin), a negative control plug (e.g., buffer+heparin) and a plug that includes the compound being tested for its effect on angiogenesis, e.g., (FGF-2+heparin+compound). All treatments are preferably run in triplicate. Animals are sacrificed by cervical dislocation at about 7 days post injection or another time that may be optimal for observing angiogenesis. The mouse skin is detached along the abdominal midline, and the Matrigel® plugs are recovered and scanned immediately at high resolution. Plugs are then dispersed in water and incubated at 37° C. overnight. Hemoglobin (Hb) levels are determined using Drabkin's solution (e.g., obtained from Sigma) according to the manufacturers' instructions. The amount of Hb in the plug is an indirect measure of angiogenesis as it reflects the amount of blood in the sample. In addition, or alternatively, animals may be injected prior to sacrifice with a 0.1 ml buffer (preferably PBS) containing a high molecular weight dextran to which is conjugated a fluorophore. The amount of fluorescence in the dispersed plug, determined fluorimetrically, also serves as a measure of angiogenesis in the plug. Staining with mAb anti-CD31 (CD31 is “platelet-EC adhesion molecule or PECAM”) may also be used to confirm neovessel formation and microvessel density in the plugs.
(§1) The IC50 for the displacement of biotinylated-HKa for the peptides shown in Table 5 was determined as follows: 10 nM biotin-HKa is added to a 96 well plate previously coated with 200 ng of chicken gizzard Tpm in the presence of 10 μM ZnCl2. Increasing amounts of the peptides are added to the wells. The remaining biotin-HKa bound to Tpm was detected using avidin-HRP and a chromogenic substrate. A Kd was determined by non-linear regression analysis of the empirical data. The effect on the Matrigel Plug assay was determined as follows: Matrigel (0.5 mL) containing 400 ng/ml of bFGF, 50 μg/ml heparin with or without the peptide (300 μM) or saline buffer are injected in the flanks of a mouse. After five days, the plugs are removed and the plugs scanned.
These cyclic peptides were also tested for their ability to inhibit bFGF-induced angiogenesis in vivo in a Matrigel plug assay. Matrigel (0.5 mL) containing 400 ng/ml of bFGF, 50 μg/ml heparin with or without 10 μM peptide (ATN-310, ATN-311 or ATN-312 or saline buffer for the controls, was injected subcutaneously in the hind flanks of a mouse as described above. All the treatments were done in triplicate. After five days, the vascularization of the Matrigel plug was determined fluorometrically after i.v. injection of 100 μl of dextran conjugated with fluorescein isothiocyanate (FITC-dextran; MW 250,000, Sigma). Five days after injection, the plugs were removed and subjected to mincing of tissue which releases vascular FITC-dextran into the supernatant. Samples of supernatant were subjected to fluorimetry as a measure of vascularity of the plug. The amount of vasculature (neovessels) is directly proportional to the fluorescent signal which reflects the total vascular blood volume of the plug. The results are shown in Table 7, below and expressed as arbitrary fluorescence units or as % inhibition relative to the negative control.

[2] = molecular target: T1, chicken gizzard Tpm (Gallus gallus, UniProt P19352); test: Binding to immobilized Tpm in a 96 well plate (biotin-HKa competition or direct binding); details: 10 μM ZnCl2; for binding to immobilized Tpm / displacement of biotin-HKa (in words): 10 nM biotin-HKa, 200 ng chicken gizzard Tpm; for IC50: displacement of 10 nM biotinylated-HKa
T1 construct: purchased Sigma; host or cells: chicken gizzard (tissue-derived, as the name says)
T1 sequence (P19352 1-284 isoform P19352-2): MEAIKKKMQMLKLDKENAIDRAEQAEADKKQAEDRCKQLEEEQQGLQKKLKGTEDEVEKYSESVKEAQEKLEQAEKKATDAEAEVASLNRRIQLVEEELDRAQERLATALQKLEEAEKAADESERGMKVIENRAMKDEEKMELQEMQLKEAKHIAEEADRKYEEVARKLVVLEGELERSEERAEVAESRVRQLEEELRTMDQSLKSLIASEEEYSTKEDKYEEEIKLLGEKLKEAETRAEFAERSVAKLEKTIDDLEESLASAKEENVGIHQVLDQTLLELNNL
T1 sequence (P04268 1-284 isoform P04268-2 F73S/I172L/T199L/N203E/L204A partner): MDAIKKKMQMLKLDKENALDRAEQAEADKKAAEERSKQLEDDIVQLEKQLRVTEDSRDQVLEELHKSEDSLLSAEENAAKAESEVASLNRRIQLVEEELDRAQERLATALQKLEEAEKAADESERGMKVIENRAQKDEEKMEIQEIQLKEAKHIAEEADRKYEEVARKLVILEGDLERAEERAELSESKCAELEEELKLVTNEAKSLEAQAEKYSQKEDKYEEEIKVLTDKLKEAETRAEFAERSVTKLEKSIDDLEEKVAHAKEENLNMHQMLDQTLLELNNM
Procedure: Plates are coated at room temperature with chicken gizzard Tpm (Sigma) in Tris buffer-saline (TBS) (200 ng/well). After incubation for 2 hours, wells are washed with TBS, then 1% BSA/TBS/Tween-20 is added to each well and incubate at 37° C. for two hours. HKa (Enzyme Laboratories) that had been previously biotinylated with EZ-Link (Pierce) according to the manufacturers instructions, is added to the plate at a concentration of 10 nM together with ZnCl2 (10 μM) and the appropriate concentration of the protein, domain or peptide competitor. The plates are incubated at room temperature and then washed with TBS/Tween-20. Avidin-HRP is added, incubated for 20 minutes at room temperature, washed with TBS/Tween-20 and the chromogenic substrate is added. The reaction is stopped with sulfuric acid and the plate read at 490 nm.
as §1
The N-terminus of the pentapeptide HHPHG has been derivatized (capped) in an attempt to increase the pentapeptides' affinity to Tpm by increasing productive molecular contacts (or interactions). […] The IC50 for the displacement of biotinylated-HKa for the capped peptides shown in the table was determined as follows: 10 nM biotin-HKa was added to a 96 well plate previously coated with 200 ng of chicken gizzard Tpm in the presence of 10 μM ZnCl2. Increasing amounts of the peptides were added to the wells. The remaining biotin-HKa bound to Tpm was detected using avidin-HRP and a chromogenic substrate. A Kd was determined by non-linear regression analysis of the empirical data

[3] = tested on: MatLyLu cells; test: Matrigel/MatLyLu model (Matrigel plug with tumor cells); type: in vivo; details: 700 μM ATN230 or 900 μM ATN294, 2×10^6 MatLyLu cells in mouse flank, seven days
Description: In this assay, tumor cells, for example 1-5×10^6 cells of the 3LL Lewis lung carcinoma or the rat prostate cell line MatLyLu, are mixed with Matrigel® and then injected into the flank of a mouse following the protocol described in Sec. B., above. A mass of tumor cells and a powerful angiogenic response can be observed in the plugs after about 5 to 7 days. The anti-tumor and anti-angiogenic action of a compound in an actual tumor environment can be evaluated by including it in the plug. Measurement is then made of tumor weight, Hb levels or fluorescence levels (of a dextran-fluorophore conjugate injected prior to sacrifice). To measure Hb or fluorescence, the plugs are first homogenize with a tissue homogenizer.

[4] = molecular target: T2, D5 domain of human kininogen, HKa (Homo sapiens, UniProt P01042); test: Binding to HKa D5 (affinity column)
T2 construct: made in house
T2 sequence (P01042 402-526): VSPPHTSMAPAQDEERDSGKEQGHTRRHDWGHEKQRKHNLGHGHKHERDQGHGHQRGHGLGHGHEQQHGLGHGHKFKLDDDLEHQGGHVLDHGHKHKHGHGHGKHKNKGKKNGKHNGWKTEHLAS
Procedure: Chicken gizzard Tpm was partially digested with Chymotrypsin as described for FIG. 19 for 100 minutes so that a 20 kDa fragment was enriched. HK-D5 had previously immobilized in an activated Sepharose (CNBr-activated Sepharose 4 B, Amersham Biosciences). The chymotryptic fragments were incubated with the HK-D5-Sepharose resin in TBS containing 10 μM ZnCl2, washed extensively in the same buffer and eluted in 2 M NaCl. The samples were run in a 10% NuPage gel (Invitrogen).
The present inventors discovered the AALBP by passing a chymotryptic digest of cTPM1 over an affinity column comprising an antiangiogenic polypeptide, specifically, the D5 domain of human kininogen, HKa. Material that bound to the column was subjected to N-terminal sequencing. The sequence was determined to be SESVKEAQE, corresponding to residues 61-69 of cTPM1 (SEQ ID NO: 1) and residues 1-9 of SEQ ID NO:2.
The fragment was partially purified by passing the chymotryptic digest through an affinity column of Sepharose-HKa-D5. The column was extensively washed and eluted with high salt buffer. The resulting material was run on an SDS gel which appears in (FIG. 20). […]

[5] = Table 6, N-capped HHPHG peptides

Compound: HPPHG [ATN228, HPPHG]
- inhibition of angiogenesis in the Matrigel plug model (in words) ([1]; 20 μg peptide): inhibited angiogenesis
- Inhibits Angiogenesis (Matrigel ® assay) [1]: Yes
- binding to immobilized Tpm / displacement of biotin-HKa (in words) [2]: bound

Compound: HHPHG [ATN230, HHPHG]
- inhibition of MatLyLu growth, plug weight (in words) [3]: inhibited MatLyLu growth
- inhibition of MatLyLu growth, plug weight (in words) ([3]; listed as HHPHG): anti-tumor activity
- Inhibits Angiogenesis (Matrigel ® assay) [1]: Yes
- Inhibits Angiogenesis (Matrigel ® assay) ([1]; listed as HHPHG): substantial activity

Compound: Ac-HHPHG-NH2 [ATN239, c-HHPHG-c]
- IC50 ([2]; Table 5): > 10000 µM

Compound: Ac-HHPHG [ATN269, c-HHPHG]
- IC50 ([2]; Table 5): > 10000 µM

Compound: TRRHDWGH [ATN232, TRRHDWGH]
- Inhibits Angiogenesis (Matrigel ® assay) [1]: Yes
- IC50 ([2]; Table 5): 140 µM

Compound: AHPHG [ATN294]
- inhibition of MatLyLu growth, plug weight (in words) [3]: not
- inhibition of MatLyLu growth, plug weight (in words) ([3]; listed as AHPHG): significantly less anti-tumor activity
- binding to immobilized Tpm / displacement of biotin-HKa (in words) [2]: abolished

Compound: Ac-HPPHG-NH2 [ATN231, c-HPPHG-c]
- IC50 ([2]; Table 5): > 10000 µM

Compound: PPPHG [ATN227, PPPHG]
- IC50 ([2]; Table 5): > 10000 µM

Compound: O=C(O)CNC(=O)[C@H](Cc1c[nH]cn1)NC(=O)[C@@H]1CCCN1C(=O)[C@H](Cc1c[nH]cn1)NC(=O)[C@H](Cc1c[nH]cn1)NC(=O)OCC1c2ccccc2-c2ccccc21 [ATN-278.000.01, Fmoc] (Fmoc-HHPHG-OH; C-terminus assumed)
- IC50 [2, 5]: 55 µM

Compound: HKNKGKKN [ATN16, HKNKGKKN]
- Inhibits Angiogenesis (Matrigel ® assay) [1]: Yes
- IC50 ([2]; Table 5): 99.5 µM

Compound: APPHG [ATN246, APPHG]
- IC50 ([2]; Table 5): > 10000 µM

Compound: SEQ ID NO:2: chymotryptic fragment, residues 61-214 of chicken gizzard cTPM1, about 17 kDa
- binding to HKa D5 (in words) [4]: binds

Compound: Ac-PPPHG-NH2 [ATN229, c-PPPHG-c]
- IC50 ([2]; Table 5): > 10000 µM

Compound: O=C(O)CNC(=O)[C@H](Cc1c[nH]cn1)NC(=O)[C@@H]1CCCN1C(=O)[C@H](Cc1c[nH]cn1)NC(=O)[C@H](Cc1c[nH]cn1)NCc1ccc(Cl)cc1 [ATN-276.000.01, 4-Chlorobenzyl] (H-[X3]HPHG-OH)
- IC50 [2, 5]: 23 µM
